The structures appear in SMILES notation. Where a name gives a salt, the structure may show the parent alone.

This series is described as follows: Dissolution testing (aqueous solubility in water at 24°C). The conditions noted are these: dihydrochloride; for stability of the supersaturated solution: 51.9 mg/ml solution in water at 24 °C; for Aqueous solubility (concentration of clear solution): in water at 24 °C. The series is classed as physicochemical. The protocol: Aqueous solubility was determined dissolution experiments of Elacestrant dihydrochloride of the present invention in water at 24°C.

`CCNCCc1ccc(CN(CC)c2cc(OC)ccc2[C@@H]2CCc3cc(O)ccc3C2)cc1` [Form B, (6R)-6-(2-(ethyl((4-(2-(ethylamino)ethyl)phenyl)-methylamino)-4-methoxyphenyl)-5,6,7,8-Tetrahydronaphthalen-2-oldihydrochloride]: the “stability of the supersaturated solution” value was “instable” and the “Aqueous solubility (concentration of clear solution)” value (from here on “Aqueous solubility”) amounted to 51.9 mg/mL. Also, the “stability of the supersaturated solution” value (listed as form B) is recorded as “precipitation of Elacestrant dihydrochloride was occurred”.

Take `CCNCCc1ccc(CN(CC)c2cc(OC)ccc2[C@@H]2CCc3cc(O)ccc3C2)cc1` [Form 1, (6R)-6-(2-(ethyl((4-(2-(ethylamino)ethyl)phenyl)-methylamino)-4-methoxyphenyl)-5,6,7,8-Tetrahydronaphthalen-2-oldihydrochloride, reference compound]: the “Aqueous solubility” value was “less than 9,2 mg/ml”.

Take `CCNCCc1ccc(CN(CC)c2cc(OC)ccc2[C@@H]2CCc3cc(O)ccc3C2)cc1` [Form A, (6R)-6-(2-(ethyl((4-(2-(ethylamino)ethyl)phenyl)-methylamino)-4-methoxyphenyl)-5,6,7,8-Tetrahydronaphthalen-2-oldihydrochloride]: the “Aqueous solubility” value is 34,5 mg/ml. For the same molecule, the “Aqueous solubility” value (listed as form A) is “about 34.5 mg/ml”.

The values are drawn from patent publication EP4574811A1, “CRYSTALLINE FORMS OF ELACESTRANT DIHYDROCHLORIDE” (SANDOZ AG, priority 2023, dated 2025).
